Reference: patent US20080153792A1, “Drug Identification and Treatment Method” (priority 2006, published 2008)

Experiments:
[1] = tested on: osteoblasts and osteocytes in murine vertebral bone; experiment: osteoblast and osteocyte apoptosis in ovariectomized mice (TUNEL); format: in vivo, mouse; conditions: ovariectomized Swiss Webster mice
Source text: The degree of apoptosis of osteoblasts and osteocytes in murine vertebral bone as a function of estrogen deficiency was examined. Swiss Webster mice (four months old) were ovariectomized. Twenty-eight days later, the animals were sacrificed, vertebrae were isolated, fixed and embedded, and then undecalcified in methacrylate.

db/db C57BL/Ks mice = experiment: glucose lowering in diabetic db/db mice; format: in vivo, mouse
Procedure: Glucose lowering and amelioration of insulin resistance. Glucose lowering effects and amelioration of insulin resistance was assessed in the diabetic db/db mouse model of human diabetes and insulin resistance. In these studies, db/db C57BL/Ks mice of approximately 8 to 10 weeks of age were divided into groups of 10 each and then treated with a vehicle control (no drug) or 17α-ethynylandrost-5-ene-3β,7β,17β-triol by oral gavage. The compound was administered twice a day at 20 mg/kg/day (10 mg/kg dose administered twice per day), 40 mg/kg/day (20 mg/kg dose administered twice per day) or 80 mg/kg/day (40 mg/kg dose administered twice per day) for up to 28 days. Blood glucose levels were monitored twice a week during the dosing period, using a minute amount of blood (nick tail bleeds) to measure the concentration of glucose by glucometer strips. At specific times during the dosing period (day 14 and day 28), an oral glucose tolerance test (OGTT) was also performed by administering a standard oral dose of 1 g/kg glucose (approximately 40 mg in a […]) and then the fluctuation of blood glucose levels was monitored quickly thereafter after at 15, 30, 60 and 120 minutes after the glucose dose. […] Blood glucose approached 380 mg/dL in the vehicle control group and was <230 mg/dL after at least 10 days of dosing in the drug treated group.
A treatment protocol similar to that described in example 15 was performed with db/db mice that were younger than the animals described in example 15. The animals (n=8 to 10 per group) were treated with 17α-ethynylandrost-5-ene-3β,7β,17β-triol or vehicle by oral gavage twice per day at 40 mg/kg/day (20 mg/kg dose given twice per day) and 80 mg/kg/day (40 mg/kg dose given twice per day). At the start of dosing, the animals were 6 weeks of age, before the onset of elevated glucose levels or hyperglycemia. Dosing with vehicle or drug was maintained for 32 days to determine the effect of the treatments on the onset and rate of progression of hyperglycemia in the animals. In the control group, the onset of hyperglycemia was observed after 25 days of dosing and it continued to worsen, i.e., blood glucose levels rose from normal to frank hyperglycemia, through the end of the 32 day dosing period.

[2] = tested on: monocyte chemoattractant protein-1 (MCP-1); experiment: MCP-1 RNA in perigonadal fat tissue, quantitative RT/PCR; format: in vivo, mouse; conditions: 20 mg/kg; normalized with respect to the vehicle control
Procedure: In another study, total RNA from perigonadal fat tissue from lean db/+ or diabetic db/db mice treated with 20 mg/kg of 17α-ethynylandrost-5-ene-3β,7β,17β-triol was isolated and processed for quantitative RT/PCR using primers specific for monocyte chemoattractant protein-1 (MCP-1) using an iCycler iQ multicolor real time-detection system (Bio-Rad). RNA expression levels were normalized with respect to the vehicle control. […] For this study, vehicle was also administered to a control group of age matched lean heterozygous db/+ mice (n=7).

11β-HSD1 = experiment: expression of 11β-HSD1 in osteoblasts of treated mice; format: in vivo, mouse; conditions: administration to mice
[3] = tested on: mice treated daily with dexamethasone; experiment: osteoprotegerin levels in dexamethasone treated mice; format: in vivo, mouse; conditions: vehicle, dexamethasone 10 μg/day and compound at 4 mg/kg/day; p<0.05
Procedure: Osteoprotegerin levels in mice that were treated with vehicle and dexamethasone at 10 μg/day (positive control group) had 3.3 pMol/L osteoprotegerin, while animals treated with vehicle, dexamethasone and 17α-ethynyl-5-androstene-3β,7β,17β-triol at 4 mg/kg/day had 6.4 pMol/L osteoprotegerin (p<0.05).

[4] = tested on: NF-κB in nuclei from spleen cells; experiment: kinetic analysis of NF-kB inhibition in vivo after LPS, Example 9; parameters: species or system mouse; conditions: about 40 mg/kg i.p. 24 h before LPS
Procedure: Kinetic analysis of NF-kB inhibition in vivo. […] The drug was injected 24 hours before intraperitoneal injection of bacterial LPS (about an LD50/24). The study used two groups of 12 animals, vehicle control or drug administered 24 hours before LPS challenge. Spleens were harvested from 3 animals from both groups just before LPS challenge and at 1.5, 2.0 and 2.5 hours after administration of LPS.
Maximum NF-κB activation after LPS administration occurred at 1.5 hours in the vehicle controls, which was 4-fold increased over the pre-LPS level of activated NF-κB. The values for the vehicle control and drug treated animals are relative optical density units from ELISA measurement of NF-κB in nuclei from spleen cells.

C#C[C@]1(O)CC[C@H]2[C@@H]3[C@@H](O)C=C4C[C@@H](O)CC[C@]4(C)[C@H]3CC[C@@]21C [17α-ethynylandrost-5-ene-3β,7β,17β-triol]
osteoblast and osteocyte apoptosis [1]: reduce apoptosis
peak glycemic excursion in OGTT (db/db C57BL/Ks mice; 80 mg/kg b.i.d. for 28 days, 30-min post-oral glucose, vehicle approximately 400 mg/dL): < 200 mg/dL
progression into the hyperglycemic state (db/db C57BL/Ks mice; 6 week old male db/db mice, 40 mg/kg): completely blocked progression
basal blood glucose hyperglycemic levels (db/db C57BL/Ks mice; 8 week old male db/db mice, 40 mg/kg dose group, twice-a-day, apparent after 10 days): markedly suppressed
blood glucose (db/db C57BL/Ks mice; after at least 10 days of dosing, vehicle approached 380 mg/dL): < 230 mg/dL
levels of glucose by the end of the 32 day dosing period (db/db C57BL/Ks mice; db/db mice 6 weeks of age at start, 40 mg/kg/day and 80 mg/kg/day oral, twice per day): did not rise above normal levels
decrease in hyperglycemic blood glucose levels (db/db C57BL/Ks mice; db/db mice 8 to 10 weeks of age, oral gavage twice a day): approximately 40%
glucose intolerance in OGTTs compared to vehicle (db/db C57BL/Ks mice; treated db/db animals): significant amelioration of glucose intolerance
decrease of levels of MCP-1 [2]: about 50%
decrease of expression of 11β-HSD1 in osteoblasts (11β-HSD1): about 50%
osteoprotegerin [3]: 6.4 pmol/L
activated NF-κB in spleen cell nuclei (ELISA) ([4]; 0 hours (just before LPS)): 22 relative optical density units
activated NF-κB in spleen cell nuclei (ELISA) ([4]; 1.5 hours after LPS): 2 relative optical density units
activated NF-κB in spleen cell nuclei (ELISA) ([4]; 2.0 hours after LPS): 7 relative optical density units
activated NF-κB in spleen cell nuclei (ELISA) ([4]; 2.5 hours after LPS): 9 relative optical density units
